The record followed here is ChEMBL document CHEMBL1938315, “Tricyclic 3,4-dihydropyrimidine-2-thione derivatives as potent TRPA1 antagonists” (Bioorg Med Chem Lett, 2012).

SMILES strings stand for the structures.

A word on the IC50: it is the concentration that gives 50% inhibition. For orientation: EC50 means the concentration needed to bring the measured effect to its halfway point.

Experiment [1] concerns the target T1, Transient receptor potential cation channel subfamily A member 1 (Rattus norvegicus, UniProt Q6RI86). The experiment in a line: Antagonist activity at rat TRPA1 expressed in HEK293 cells assessed as inhibition of BITC-induced increase in intracellular calcium concentration by Fluo4-AM based fluorometric assay. The class given is functional, cell-based.
Experiment [2] has as its target T2, Transient receptor potential cation channel subfamily A member 1 (Homo sapiens, UniProt O75762). Kind of experiment: Antagonist activity at human TRPA1 expressed in HEK293 cells assessed as inhibition of 5H-dibenzo[b,e]azepine-10-carboxylic acid methyl ester-induced increase in intracellular calcium by Fluo4-AM based fluorometric assay. Type of experiment: functional, cell-based. On the technique in general: A change in cytosolic calcium serves as a functional read-out for many receptors and channels.

Experiment [3] concerns the target T2, Transient receptor potential cation channel subfamily A member 1. The experiment in a line: Antagonist activity at human TRPA1 expressed in HEK293 cells assessed as inhibition of N-methyl-maleimide-induced current by patch clamp assay. (Patch clamp records ionic current or voltage across a cell membrane.)
Experiment [4] has as its target T1, Transient receptor potential cation channel subfamily A member 1. Kind of experiment: Antagonist activity at rat TRPA1 expressed in HEK293 cells assessed as inhibition of N-methyl-maleimide-induced current by patch clamp assay.

T1 sequence (Q6RI86 whole entry): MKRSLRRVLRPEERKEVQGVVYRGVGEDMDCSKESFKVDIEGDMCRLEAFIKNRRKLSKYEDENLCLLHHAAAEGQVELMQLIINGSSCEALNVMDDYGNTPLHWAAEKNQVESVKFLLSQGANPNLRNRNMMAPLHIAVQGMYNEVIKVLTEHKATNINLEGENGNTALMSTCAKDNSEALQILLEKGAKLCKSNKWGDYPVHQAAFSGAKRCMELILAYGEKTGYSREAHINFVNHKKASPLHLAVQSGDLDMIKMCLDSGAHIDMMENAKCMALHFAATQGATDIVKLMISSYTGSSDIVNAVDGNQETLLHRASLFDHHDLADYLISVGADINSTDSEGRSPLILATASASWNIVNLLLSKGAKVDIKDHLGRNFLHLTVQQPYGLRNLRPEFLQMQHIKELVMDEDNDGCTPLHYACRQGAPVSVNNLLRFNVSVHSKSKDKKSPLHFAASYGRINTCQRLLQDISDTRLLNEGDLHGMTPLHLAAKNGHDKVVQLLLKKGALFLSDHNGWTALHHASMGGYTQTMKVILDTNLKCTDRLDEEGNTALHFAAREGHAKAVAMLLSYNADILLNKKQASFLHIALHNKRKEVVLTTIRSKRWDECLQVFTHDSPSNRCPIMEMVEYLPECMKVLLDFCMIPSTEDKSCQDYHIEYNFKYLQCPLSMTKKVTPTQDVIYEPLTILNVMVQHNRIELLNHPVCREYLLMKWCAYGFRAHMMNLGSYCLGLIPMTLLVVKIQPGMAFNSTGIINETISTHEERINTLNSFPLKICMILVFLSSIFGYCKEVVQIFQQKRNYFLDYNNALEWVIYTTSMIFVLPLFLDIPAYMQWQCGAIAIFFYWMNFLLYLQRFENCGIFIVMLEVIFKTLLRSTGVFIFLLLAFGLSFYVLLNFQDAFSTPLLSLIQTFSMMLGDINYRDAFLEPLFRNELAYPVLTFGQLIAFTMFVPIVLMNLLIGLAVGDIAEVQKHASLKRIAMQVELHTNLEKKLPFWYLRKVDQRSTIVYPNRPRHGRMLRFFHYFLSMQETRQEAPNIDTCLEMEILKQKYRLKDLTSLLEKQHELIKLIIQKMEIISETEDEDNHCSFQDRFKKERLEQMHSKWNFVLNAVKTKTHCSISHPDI
T2 sequence (O75762 whole entry): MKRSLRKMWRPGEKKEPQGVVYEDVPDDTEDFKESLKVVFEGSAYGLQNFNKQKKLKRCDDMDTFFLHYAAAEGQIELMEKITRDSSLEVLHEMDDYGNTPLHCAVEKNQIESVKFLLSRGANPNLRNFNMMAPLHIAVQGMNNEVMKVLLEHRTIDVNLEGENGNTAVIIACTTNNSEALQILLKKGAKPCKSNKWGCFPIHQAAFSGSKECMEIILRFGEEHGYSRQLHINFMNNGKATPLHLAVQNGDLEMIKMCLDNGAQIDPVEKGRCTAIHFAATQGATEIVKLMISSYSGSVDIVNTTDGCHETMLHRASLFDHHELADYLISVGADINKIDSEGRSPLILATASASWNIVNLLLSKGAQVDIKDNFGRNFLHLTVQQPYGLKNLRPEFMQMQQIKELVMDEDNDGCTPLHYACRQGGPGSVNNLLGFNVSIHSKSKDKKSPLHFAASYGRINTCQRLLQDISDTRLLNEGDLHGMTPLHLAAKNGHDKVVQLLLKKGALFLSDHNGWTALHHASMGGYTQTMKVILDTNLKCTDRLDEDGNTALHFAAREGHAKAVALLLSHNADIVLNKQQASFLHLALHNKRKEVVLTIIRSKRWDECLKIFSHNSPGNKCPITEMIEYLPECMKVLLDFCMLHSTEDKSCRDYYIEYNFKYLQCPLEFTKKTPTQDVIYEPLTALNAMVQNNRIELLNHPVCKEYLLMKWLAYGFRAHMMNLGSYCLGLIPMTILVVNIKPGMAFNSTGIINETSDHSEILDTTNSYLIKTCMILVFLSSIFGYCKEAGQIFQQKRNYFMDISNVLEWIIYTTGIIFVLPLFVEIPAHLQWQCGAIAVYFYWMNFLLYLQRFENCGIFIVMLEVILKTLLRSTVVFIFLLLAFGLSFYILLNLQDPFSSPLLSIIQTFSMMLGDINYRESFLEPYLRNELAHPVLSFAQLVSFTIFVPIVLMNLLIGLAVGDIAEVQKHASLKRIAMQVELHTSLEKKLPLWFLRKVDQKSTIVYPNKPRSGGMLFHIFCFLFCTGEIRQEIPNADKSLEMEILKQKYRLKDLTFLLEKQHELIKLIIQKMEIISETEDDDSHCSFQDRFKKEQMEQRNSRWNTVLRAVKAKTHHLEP

Take `CC(C)c1ccc(NC(=O)Cn2cnc3c2c(=O)n(C)c(=O)n3C)cc1`: the results for the IC50 in experiment [1] and in experiment [2] were 5600 nM and more than 10000 nM, respectively.
`O=C1CCCC2=C1C(c1ccccc1)NC(S)=N2` (stereo unspecified): the IC50 in experiment [2] is more than 10000 nM.
Turning to `S=C(NCc1ccccc1)NCc1ccccc1`, the IC50 in experiment [2] is more than 10000 nM.
Turning to `SC1=NC2=C(CCC/C2=C\c2ccccc2)C(c2ccccc2)N1` (stereo unspecified), the IC50 in experiment [2] was more than 10000 nM.
Turning to `SC1=NC(c2ccccc2)=CC(c2ccccc2)N1` (stereo unspecified), the IC50 in experiment [2] was more than 10000 nM.
With `O=C1NC2=C(C(=O)c3ccccc32)C(c2ccccc2)N1` (stereo unspecified), the IC50 in experiment [1] and in experiment [2] was more than 10000 nM throughout.
On to `COCCCOc1cccc([C@H]2NC(=S)NC3=C2C(=O)c2ccccc23)c1`, for which the results for the IC50 in experiment [1] and in experiment [2] were 4 nM and 13 nM, respectively.
`COCCCOc1cccc([C@@H]2NC(=S)NC3=C2C(=O)c2ccccc23)c1`: in experiment [1], the 50% inhibitory concentration (IC50) was more than 10000 nM.
As for `COc1cccc([C@H]2NC(=S)NC3=C2C(=O)c2ccccc23)c1`, the values for the concentration for half-maximal inhibition (IC50) in experiment [1] and in experiment [2] were 12 nM and 75 nM, respectively. Further, the EC50 in experiment [3] is 0.01 µM; in experiment [4] it was 220 nM.
`COc1cccc([C@@H]2NC(=S)NC3=C2C(=O)c2ccccc23)c1`: in experiment [1], the IC50 was more than 10000 nM. Also, in experiment [3], the EC50 is 12 µM.
On to `CN(C)CCCOc1cccc(C2NC(=S)NC3=C2C(=O)c2ccccc23)c1` (stereo unspecified), for which the 50% inhibitory concentration (IC50) in experiment [1] and in experiment [2] was more than 10000 nM each time.
As to `COc1ccc(Oc2cccc(C3NC(=S)NC4=C3C(=O)c3ccccc34)c2)cc1` (stereo unspecified), the IC50 in experiment [1] was found to be 160 nM; in experiment [2], 1500 nM.
Regarding `O=C1C2=C(NC(=S)NC2c2cccc(OCCO)c2)c2ccccc21` (stereo unspecified), the IC50 is 47 nM in experiment [1] and 210 nM in experiment [2].
For `O=C1C2=C(NC(=S)NC2c2cccc(OCCCCO)c2)c2ccccc21` (stereo unspecified), the values for the IC50 in experiment [1] and in experiment [2] were 10 nM and 70 nM, respectively.
`CN(C)CCOc1cccc(C2NC(=S)NC3=C2C(=O)c2ccccc23)c1` (stereo unspecified): the IC50 in experiment [1] was 8900 nM; in experiment [2] it was more than 10000 nM.
For `COc1cc(OC)cc(C2NC(=S)NC3=C2C(=O)c2ccccc23)c1` (stereo unspecified), the IC50 was determined as 800 nM in experiment [1] and 2780 nM in experiment [2].
For `CCCCOc1cccc(C2NC(=S)NC3=C2C(=O)c2ccccc23)c1` (stereo unspecified), the IC50 worked out at 70 nM in experiment [1] and 310 nM in experiment [2].
Take `O=C(O)c1cccc(C2NC(=S)NC3=C2C(=O)c2ccccc23)c1` (stereo unspecified): the IC50 in experiment [1] and in experiment [2] was more than 10000 nM in each case.
For `COc1cccc(C2NC(=S)NC3=C2C(=O)c2ccccc23)c1OC` (stereo unspecified), the IC50 in experiment [1] worked out at 2700 nM.
`COc1ccc(OC)c(C2NC(=S)NC3=C2C(=O)c2ccccc23)c1` (stereo unspecified): the IC50 in experiment [1] is more than 10000 nM.
As for `O=C1C2=C(NC(=S)NC2c2cccc(O)c2)c2ccccc21` (stereo unspecified), the IC50 in experiment [1] was 230 nM; in experiment [2], 640 nM.
The matching figures for `O=C1C2=C(NC(=S)NC2c2cccc(CO)c2)c2ccccc21` (stereo unspecified): 44 nM and 710 nM.
Take `COc1ccc(C2NC(=S)NC3=C2C(=O)c2ccccc23)cc1` (stereo unspecified): the IC50 in experiment [1] amounted to 3500 nM; in experiment [2] it was 3100 nM.
As for `O=C1C2=C(NC(=S)NC2c2cccc(Br)c2)c2ccccc21` (stereo unspecified), the half-maximal inhibitory concentration (IC50) in experiment [1] stood at 71 nM.
In the case of `O=C1C2=C(NC(=S)NC2c2ccccc2F)c2ccccc21` (stereo unspecified), the IC50 was found to be 3390 nM in experiment [1] and 2070 nM in experiment [2].
For `O=C1C2=C(NC(=S)NC2c2cccc(F)c2)c2ccccc21` (stereo unspecified), the IC50 in experiment [1] is 390 nM; in experiment [2], 1100 nM.
For `COc1ccccc1C1NC(=S)NC2=C1C(=O)c1ccccc12` (stereo unspecified), in that order: 9400 nM and more than 10000 nM.
For `O=C1C2=C(NC(=S)N[C@@H]2c2ccccc2)c2ccccc21`, in that order: 310 nM and 770 nM.
Turning to `O=C1C2=C(NC(=S)N[C@H]2c2ccccc2)c2ccccc21`, the results for the half-maximal inhibitory concentration (IC50) in experiment [1] and in experiment [2] were more than 10000 nM and 8100 nM, respectively.
As for `S=C1NC2=C(CCCC2)C(c2ccccc2)N1` (stereo unspecified), the IC50 in experiment [2] was more than 10000 nM.
On to `CC1=C(C(=O)c2ccccc2)C(c2ccccc2)NC(=S)N1` (stereo unspecified), for which, in experiment [2], the IC50 is more than 10000 nM.
For `S=C1NC2=C(CCc3ccccc32)C(c2ccccc2)N1` (stereo unspecified), the half-maximal inhibitory concentration (IC50) in experiment [2] was more than 10000 nM.
As to `S=C1NC2=C(CCC2)C(c2ccccc2)N1` (stereo unspecified), the IC50 in experiment [2] was more than 10000 nM.
Regarding `CCOC(=O)C1=C(c2ccccc2)NC(=S)NC1c1cccc(OC)c1` (stereo unspecified), the IC50 in experiment [1] is 9500 nM; in experiment [2], more than 10000 nM.
`COc1cccc(C2NC(=S)N(C)C3=C2C(=O)c2ccccc23)c1` (racemic): the results for the IC50 in experiment [1] and in experiment [2] were 3 nM and 85 nM, respectively.
With `COCCCOc1cccc(C2NC(=O)NC3=C2C(=O)c2ccccc23)c1` (racemic), the IC50 in experiment [1] amounted to 500 nM; in experiment [2], 1700 nM.
On to `COc1cccc(C2C3=C(NC(=S)N2C)c2ccccc2C3=O)c1` (racemic), for which, in experiment [1], the half-inhibitory concentration (IC50) came out at 980 nM.
With `COc1cccc(C2NC(=O)NC3=C2C(=O)c2ccccc23)c1` (racemic), the figures for the IC50 in experiment [1] and in experiment [2] were 4700 nM and 3900 nM, respectively.
On to `COCCCOc1cccc(C2NC(=S)NC3=C2C(=O)c2ccccc23)c1` (racemic), for which the IC50 in experiment [1] amounted to 11 nM; in experiment [2] it was 50 nM.
As for `COc1cccc(C2NC(=S)NC3=C2C(=O)c2ccccc23)c1` (racemic), the IC50 in experiment [1] is 20 nM; in experiment [2] it was 130 nM.
For `O=C1C2=C(NC(=S)NC2c2ccccc2)c2ccccc21` (racemic), in that order: 1900 nM and 1800 nM.
